Earlier results in patent publication US20260272874A1, “COMPOUNDS FOR THE TREATMENT AND PREVENTION OF VIRAL DISEASES” (priority 2023, published 2026).

Tests used:
[1] = test system: SARS-CoV-2
[2] = test system: RNA helicase enzyme eIF4A; conditions: previous studies
[3] = test system: corona viruses, SARS and MERS virus
[4] = test system: coronavirus

Compound: COc1cc2c(c(OC)n1)[C@]1(O)[C@H](O)[C@H](CN(C)C)[C@@H](c3ccccc3)[C@]1(c1ccc(C#N)cc1)O2 [Zotatifin]
- antiviral activity against SARS-CoV-2 [1]: shows antiviral activity

Compound: Silvesterol
- inhibition of RNA helicase enzyme eIF4A [2]: potent and selective inhibitor
- antiviral activity [3]: broad spectrum antiviral activity

Compound: 4E2RCat
- coronavirus replication [4]: capable of blocking coronavirus replication
